Where two headings read alike, the source gives them in different places.
Legend:
[1] = system: highly purified human NKs; conditions: NK cells, ref Brown and Whalen, 2015, cited from earlier work
[2] = system: monocyte-depleted PBMCs; conditions: MD-PBMCs, ref Brown and Whalen, 2015, cited from earlier work
[3] = system: MD-PBMCs; experiment: IL-1β secretion; format: cell-based, human

Structure (SMILES): CCC[CH2][Sn]([CH2]CCC)[CH2]CCC [TBT, tributyltin]
- fold increase in IL-1β secretion ([1]; donor KB169, 50 nM TBT): 7.7 fold
- fold increase in IL-1β secretion ([1]; donor KB169, 100 nM TBT): 6.3 fold
- fold increase in IL-1β secretion ([2]; donor F142, 24 h, 50 nM TBT): 2.1 fold
- fold increase in IL-1β secretion ([2]; donor F142, 24 h, 100 nM TBT): 1.8 fold
- fold increase in IL-1β secretion ([2]; donor F145, 24 h, 50 nM TBT): 1.8 fold
- fold increase in IL-1β secretion ([2]; donor F145, 24 h, 100 nM TBT): 1.5 fold
- fold increase in IL-1β secretion ([2]; third common donor (F152), 24 h, 50 nM TBT): 11 fold

Structure (SMILES): CC(=O)N[C@@H](Cc1ccc(O)cc1)C(=O)N[C@H](C(=O)N[C@@H](C)C(=O)N[C@@H](CC(=O)O)C(=O)CCl)C(C)C [Caspase-1 Inhibitor II, reference compound]
- effect on baseline IL-1β production ([3]; 50 μM, cells from each donor, p<0.05): significantly decreased
- Interleukin 1 beta secreted ([3]; donor F240, 24 h, Caspase-1 inhibitor II 50 μM alone (0 DBT)): 237 ± 19 pg/mL
- Interleukin 1 beta secreted ([3]; donor F242, 24 h, Caspase-1 inhibitor II 50 μM alone (0 DBT)): 460 ± 15 pg/mL
- Interleukin 1 beta secreted ([3]; donor F244, 24 h, Caspase-1 inhibitor II 50 μM alone (0 DBT)): 233 ± 11 pg/mL
- Interleukin 1 beta secreted ([3]; donor F245, 24 h, Caspase-1 inhibitor II 50 μM alone (0 DBT)): 150 ± 8 pg/mL
- Interleukin 1 beta secreted ([3]; donor F254, 24 h, Caspase-1 inhibitor II 50 μM alone (0 DBT)): 39 ± 4 pg/mL

Structure (SMILES): Oc1ccc(-c2nc(-c3ccncc3)c(-c3ccc(F)cc3)[nH]2)cc1 [SB202190, reference compound]
- effect on baseline secretion ([3]; 3 of the 4 donors, in 1 donor it greatly increased secretion): significantly decreased
- Interleukin 1 beta secreted ([3]; donor F247, 24 h, SB202190 alone (0 DBT)): 1613 ± 141 pg/mL
- Interleukin 1 beta secreted ([3]; donor F262, 24 h, SB202190 alone (0 DBT)): 149 ± 41 pg/mL
- Interleukin 1 beta secreted ([3]; donor F372, 24 h, SB202190 alone (0 DBT)): 36 ± 3 pg/mL
- Interleukin 1 beta secreted ([3]; donor F385, 24 h, SB202190 alone (0 DBT)): 357 ± 61 pg/mL

Structure (SMILES): N#CC(=C(/N)Sc1ccccc1N)/C(C#N)=C(/N)Sc1ccccc1N [U0126, reference compound]
- Interleukin 1 beta secreted ([3]; donor F240, 24 h, U0126 50 μM alone (0 DBT)): 1756 ± 54 pg/mL
- Interleukin 1 beta secreted ([3]; donor F242, 24 h, U0126 50 μM alone (0 DBT)): 479 ± 29 pg/mL
- Interleukin 1 beta secreted ([3]; donor F244, 24 h, U0126 50 μM alone (0 DBT)): 119 ± 28 pg/mL
- Interleukin 1 beta secreted ([3]; donor F245, 24 h, U0126 50 μM alone (0 DBT)): 255 ± 25 pg/mL

Structure (SMILES): CC(C)(C)c1ccc(S(=O)(=O)/C=C/C#N)cc1 [BAY 11-7085, reference compound]
- Interleukin 1 beta secreted ([3]; donor F244, 24 h, BAY 11-7085 alone (0 DBT)): 836 ± 8 pg/mL
- Interleukin 1 beta secreted ([3]; donor F245, 24 h, BAY 11-7085 alone (0 DBT)): 536 ± 51 pg/mL
- Interleukin 1 beta secreted ([3]; donor F333, 24 h, BAY 11-7085 alone (0 DBT)): 2039 ± 62 pg/mL
- Interleukin 1 beta secreted ([3]; donor F334, 24 h, BAY 11-7085 alone (0 DBT)): 703 ± 70 pg/mL
- effect on baseline IL-1β secretion ([3]; inhibitor alone): varying effects
